This note sets out measurements from paper PMC6273342, “Cytotoxic Alkaloids from the Stem of Xylopia laevigata” (Molecules, 2016).

The IC50 is the concentration that inhibits the measured activity by half.

Molecules are shown by their SMILES. Read-outs that look alike come from different tables or passages of the source.

In series [1] the test system is HepG2 (human hepatocellular carcinoma). Description: Alamar Blue cytotoxicity assay, HepG2. It is filed as cell-based. The note with it: 72 h incubation. An excerpt: (§1) Camargo, São Paulo, Brazil.
(Resazurin is reduced to fluorescent resorufin, in cell work by metabolically active cells.)

Series [2] deals with HL-60 (human promyelocytic leukemia). In words: Alamar Blue cytotoxicity assay, HL-60. It is filed as cell-based. The note with it: Homo sapiens, HL-60, Alamar Blue, 72 h incubation, read-out: IC50 HL60.
Description: (§3) B16-F10, HepG2, K562 and HL-60 tumor cell lines were kindly donated by Hospital A.C. […] Cells were maintained in RPMI 1640 medium (Gibco-BRL, Gaithersburg, MD, USA) with 10% fetal bovine serum (Cultilab, Campinas, Brazil), 2 mM L-glutamine (Vetec Química Fina, Duque de Caxias, Brazil) and 50 μg/mL gentamycin (Novafarma, Anápolis, Brazil). Adherent cells were collected by treatment with 0.25% trypsin-EDTA solution (Gibco-BRL). All cell lines were cultured in flasks at 37 °C in 5% CO2 and sub-cultured every 3–4 days to maintain exponential growth. All cell lines were tested for mycoplasma using a Mycoplasma Stain Kit (Sigma-Aldrich, St. Louis, MO, USA) to confirm that the cells were free from contamination.
(§4) Cell viability was quantified using the Alamar Blue assay, according to Ahmed et al. [23]. Cells were placed in 96-well plates for all experiments (0.7 × 10^5 cells/mL for adherent cells or 0.3 × 10^6 cells/mL for suspended cells in 100 μL of medium). After 24 h, the alkaloids (in a range of eight different concentrations varying from 0.19 to 25 μg/mL) were dissolved in dimethyl sulfoxide (DMSO, Sigma-Aldrich Co.), and the solution was added to each well and incubated for 72 h. […] Negative controls received the vehicle that was used for diluting the alkaloids (0.5% DMSO). Four (for cell lines) or 24 h (for PBMCs) before the end of incubation, 20 μL of a stock solution (0.312 mg/mL) of the Alamar Blue (resazurin, Sigma-Aldrich Co.) was added to each well. The absorbance at 570 nm and 600 nm was measured using a SpectraMax 190 Microplate Reader (Molecular Devices, Sunnyvale, CA, USA), and the drug effect was quantified as the percentage of control absorbance.
Series [3] concerns peripheral blood mononuclear cells (PBMCs). Description: Alamar Blue cytotoxicity assay, non-tumor PBMCs. It is filed as cell-based. The settings on record: Homo sapiens, PBMC, 72 h incubation, ConA-stimulated PBMCs. The method, then:
Heparinized blood was collected from 20- to 35-year-old, healthy non-smokers who had not taken any drugs for at least 15 days prior to sampling, and the peripheral blood mononuclear cells (PBMCs) were isolated using a Ficoll density gradient in a Ficoll-Paque Plus (GE Healthcare Bio-Sciences AB, Uppsala, Sweden). PBMCs were washed and resuspended at a concentration of 0.3 × 10^6 cells/mL in RPMI 1640 medium with 20% fetal bovine serum, 2 mM L-glutamine and 50 μg/mL gentamycin at 37 °C with 5% CO2. Concanavalin A (ConA, Sigma-Aldrich Co.) was used as a mitogen to trigger cell division in T-lymphocytes. ConA (10 μg/mL) was added at the beginning of culture, and the cells were treated with the test compounds after 24 h. Cell viability was examined using a trypan blue exclusion assay for all experiments. Over 90% of the cells were viable at the beginning of the culture. The Research Ethics Committee of the Oswaldo Cruz Foundation (Salvador, Bahia, Brazil) approved the experimental protocol (#031019/2013). All participants signed a written informed consent to participate in the study.

Series [4] concerns K562 (human chronic myelocytic leukemia). In words: Alamar Blue cytotoxicity assay, K562. It counts as cell-based. The note with it: 72 h incubation.
Source text: as §1

Series [5] concerns tumor cell lines B16-F10, HepG2, K562 and HL-60. Description: Alamar Blue cytotoxicity assay, summary over the tumor cell lines tested. The note with it: 72 h, read-out: IC50 in at least one of the tumor cell lines tested.
Description: as §3, §4
The test system of a further series is B16-F10 (mouse melanoma). Description: Alamar Blue cytotoxicity assay, B16-F10. It counts as cell-based. The note with it: 72 h incubation.
Source text: as §1

Series [6] in a line: Alamar Blue cytotoxicity assay, summary over the tumor cell lines tested. The settings on record: mouse (B16-F10); human (HepG2, K562, HL-60).
Description: as §3, §4
For series [7], the system named is HepG2 cells. Description: Annexin assay (phosphatidylserine externalization, flow cytometry), HepG2. It counts as cell-based, human. The note with it: HepG2, 24 h; doxorubicin 1 μg/mL, positive control. The method, then: (§2) The following set of experiments was performed to investigate the mechanisms involved in the cytotoxic action of the alkaloids lanuginosine and (+)-xylopine. In all experiments, 2 mL of a HepG2 cell solution (0.7 × 10^5 cells/mL) was placed in 24-well plates and incubated overnight to allow the cells to adhere to the plate surface. The cells were then treated for 24 h with the alkaloids lanuginosine (10 and 20 μg/mL) and (+)-xylopine (5 and 10 μg/mL). The negative control was treated with the vehicle (0.2% DMSO) used for diluting the alkaloids. […] Cell viability was assessed for all experiments using a Trypan Blue exclusion assay.
Phosphatidylserine externalization was analyzed by flow cytometry. A FITC annexin V apoptosis detection kit (BD Biosciences, San Jose, CA, USA) was used to determine cell viability (viable, early apoptotic, late apoptotic and necrotic cells). Cells were washed twice with saline and then resuspended in 100 μL of binding buffer with 5 μL of propidium iodide and 5 μL of FITC annexin V. The cells were gently mixed on a vortexer and incubated for 15 min at room temperature (20–25 °C) in the dark. Afterwards, 400 μL of binding buffer was added to each tube and the cells were analyzed by flow cytometry on a BD LSRFortessa cytometer using BD FACSDiva Software (BD Biosciences) and Flowjo Software 10 (Flowjo LCC, Ashland, OR, USA). Ten thousand events were evaluated per experiment and cellular debris was omitted from the analysis.
On the technique in general: A flow cytometer gives signals particle by particle.

Series [8] concerns HepG2 cells. Description: Internucleosomal DNA fragmentation and cell cycle distribution (flow cytometry, propidium iodide), HepG2. It counts as cell-based, human. The settings on record: HepG2, 24 h, 1 µg/mL. The method, then:
as §2
Cells were harvested in a lysis solution containing 0.1% triton X-100 (Sigma Chemical Co., St. Louis, MO, USA), 2 µg/mL propidium iodide (Sigma Chemical Co.), 0.1% sodium citrate and 100 µg/mL RNAse (Sigma Chemical Co.). Cell fluorescence was determined by flow cytometry on a BD LSRFortessa cytometer using BD FACSDiva Software (BD Biosciences) and Flowjo Software 10. Ten thousand events were evaluated per experiment and cellular debris was omitted from the analysis.

For `COc1cc2c(cc1O)CCN1Cc3c(ccc(O)c3OC)CC21` (single isomer, unassigned; (+)) [(+)-Discretamine, (+)-discretamine], the IC50 is 14 µg/mL in [1]; 42.8 µM in [1] (value in brackets); 10.1 µg/mL in series [2]; 30.8 µM in series [2] (value in brackets); above 25 µg/mL in [3]; 10.6 µg/mL in series [4]. Besides, the IC50 in series [4] (value in brackets) is 32.4 µM; in series [5] it was below 20 µg/mL; in the series on B16-F10 (mouse melanoma), 18.8 µg/mL; with B16-F10 (mouse melanoma) (value in brackets), 57.3 µM.

Regarding `COc1cc2c(cc1O)CC1c3c(cc(OC)c(OC)c3-2)CCN1C` (single isomer, unassigned; (+)) [(+)-N-Methyllaurotetanine, (+)-N-methyllaurotetanine], the IC50 (in series [1]; in series [2]; in series [3]; in series [4]; in the series on B16-F10 (mouse melanoma)) was above 25 µg/mL each time. The molecule further displayed an IC50 at 72 h in series [6] above 25 µg/mL.

Regarding `COc1cc2c(cc1OC)-c1c(OC)c(OC)c(OC)c3c1C(C2)NCC3` (single isomer, unassigned; (+)) [(+)-Norpurpureine, (+)-norpurpureine], the IC50 in series [1] was above 25 µg/mL; in [2], 10.1 µg/mL; in series [2] (value in brackets) it was 27.2 µM; in series [3], 17.9 µg/mL; in series [3] (value in brackets), 48.2 µM; in series [4] it was 16.7 µg/mL. Further, the IC50 was 44.9 µM in series [4] (value in brackets), below 20 µg/mL in series [5], 21.1 µg/mL with B16-F10 (mouse melanoma) and 56.6 µM in the series with B16-F10 (mouse melanoma) (value in brackets).

`COc1ccc(CC2c3cc(O)c(OC)cc3CCN2C)cc1O` (single isomer, unassigned; (+)) [(+)-Reticuline, (+)-reticuline]: the IC50 is 15.3 µg/mL in [1]; 46.5 µM in [1] (value in brackets); 23.8 µg/mL in series [2]; 72.1 µM in series [2] (value in brackets); above 25 µg/mL in series [3]; above 25 µg/mL in [4]. Besides, the IC50 in series [5] is below 20 µg/mL; in the series with B16-F10 (mouse melanoma), above 25 µg/mL.

Regarding `COc1cc2c(cc1O)CC1c3cc(OC)c(OC)cc3CCN1C2` (single isomer, unassigned; (-)) [(−)-Corytenchine, (−)-corytenchine], the IC50 (in series [1]; in series [2]; in series [3]; in series [4]; in the series with B16-F10 (mouse melanoma)) was above 25 µg/mL in each case. In addition, in series [6], the IC50 at 72 h is above 25 µg/mL.

Take `c1ccc2c(c1)C[C@H]1NCCc3cc4c(c-2c31)OCO4` [(+)-Anonaine, (+)-anonaine]: the IC50 in series [1] is 14 µg/mL; in series [1] (value in brackets) it was 52.8 µM; in series [2], 10.1 µg/mL; in [2] (value in brackets) it was 37.9 µM; in series [3] it was above 25 µg/mL; in series [4], 10.6 µg/mL. In addition, the IC50 was 39.9 µM in series [4] (value in brackets), below 20 µg/mL in [5], 18.8 µg/mL in the series on B16-F10 (mouse melanoma) and 70.7 µM with B16-F10 (mouse melanoma) (value in brackets).

Turning to `COc1cc(O)c2c(c1)C[C@@H]1NCCc3cc4c(c-2c31)OCO4` [(+)-Calycinine, (+)-calycinine], the IC50 in series [1] was above 25 µg/mL; in series [2], 18.6 µg/mL; in series [2] (value in brackets), 59.6 µM; in series [3] it was above 25 µg/mL; in [4], above 25 µg/mL; in series [5], below 20 µg/mL. The half-inhibitory concentration (IC50) in the series on B16-F10 (mouse melanoma) amounted to 22.2 µg/mL; in the series on B16-F10 (mouse melanoma) (value in brackets), 71 µM.

As to `COc1cc2c(cc1O)CCN1Cc3cc(OC)c(OC)cc3C[C@@H]21` [(+)-Discretine, (+)-discretine], the IC50 in series [1] was 7.89 µg/mL; in series [1] (value in brackets), 23.1 µM; in [2], 13 µg/mL; in [2] (value in brackets), 37.9 µM; in series [3] it was above 25 µg/mL; in series [4], 14.8 µg/mL. In addition, the IC50 in [4] (value in brackets) is 43.4 µM; in [5], below 20 µg/mL; with B16-F10 (mouse melanoma), 16.1 µg/mL; in the series with B16-F10 (mouse melanoma) (value in brackets), 47.2 µM.

With `COC1=C[C@]23CCN(C)[C@H](Cc4cc(OC)c(O)cc42)C3=CC1=O` [(+)-Flavinantine, (+)-flavinantine], the IC50 (in series [1]; in series [2]; in series [3]; in series [4]; with B16-F10 (mouse melanoma)) was above 25 µg/mL throughout. Moreover, the IC50 at 72 h in series [6] is above 25 µg/mL.

On to `COc1cc2c(cc1OC)-c1c(OC)c(OC)cc3c1[C@H](C2)N(C)CC3` [(+)-Glaucine, (+)-glaucine], for which the IC50 (in series [1]; in [2]; in [3]; in series [4]; in the series on B16-F10 (mouse melanoma)) was above 25 µg/mL throughout. Also, the IC50 at 72 h in series [6] is above 25 µg/mL.

For `COc1cc2c(cc1O)C[C@@H]1NCCc3cc(OC)c(OC)c-2c31` [(+)-Laurotetanine, (+)-laurotetanine], the IC50 (in series [1]; in series [2]; in [3]; in series [4]; in the series on B16-F10 (mouse melanoma)) was above 25 µg/mL throughout. This molecule also yielded an IC50 at 72 h in series [6] above 25 µg/mL.

Turning to `CN1CCc2cc3c(c4c2[C@H]1Cc1ccccc1-4)OCO3` [(−)-Roemerine, (−)-roemerine], the IC50 (in series [1]; in series [2]; in series [3]; in series [4]; with B16-F10 (mouse melanoma)) was above 25 µg/mL throughout. In series [6], this molecule gave an IC50 at 72 h above 25 µg/mL.

For the molecule `COc1cc2c(cc1OC)CN1CCc3cc(OC)c(OC)cc3[C@@H]1C2` [(−)-Xylopinine, (−)-xylopinine], the IC50 (in series [1]; in [2]; in series [3]; in series [4]; in the series on B16-F10 (mouse melanoma)) was above 25 µg/mL each time. For the same molecule, in series [6], the IC50 at 72 h is above 25 µg/mL.

Turning to `COc1cccc2c1C(=O)c1c(O)c3c(c(O)c1C2=O)C[C@@](O)(C(=O)CO)C[C@@H]3O[C@H]1C[C@H](N)[C@H](O)[C@H](C)O1` [Doxorubicin, doxorubicin, reference compound], the 50% inhibitory concentration (IC50) in [1] turned out to be 0.08 µg/mL; in series [1] (value in brackets), 0.15 µM; in series [2], 0.09 µg/mL; in series [3], 2.47 µg/mL; in series [3] (value in brackets) it was 4.54 µM; in [4], 0.15 µg/mL. For the same molecule, the IC50 in [4] (value in brackets) was 0.28 µM; in the series on B16-F10 (mouse melanoma) it was 0.08 µg/mL; with B16-F10 (mouse melanoma) (value in brackets), 0.15 µM. Moreover, in the series with HepG2 cells [7], the “apoptotic characteristics in the cells” value was “induced apoptotic characteristics”. Also, in the series with HepG2 cells [8] (NC 16.11 ± 1.89), the “Cell Cycle Phases (%) S” value is 12.00 ± 1.43 %. For the same molecule, in the series with HepG2 cells [8] (NC 19.93 ± 6.12), the “Cell Cycle Phases (%) G2/M” value turned out to be 61.94 ± 5.52 %.

For `COc1cc2c(cc1OC)-c1c(OC)c(OC)cc3ccnc(c13)C2=O` [Oxoglaucine, oxoglaucine], the IC50 in series [1] was above 25 µg/mL; in series [2], 5.9 µg/mL; in series [2] (value in brackets), 16.8 µM; in series [3], 10.2 µg/mL; in series [3] (value in brackets), 29.1 µM; in [4], 12.5 µg/mL. The IC50 in [4] (value in brackets) is 35.5 µM; in [5], below 20 µg/mL; in the series with B16-F10 (mouse melanoma) it was 19.1 µg/mL; in the series on B16-F10 (mouse melanoma) (value in brackets), 54.4 µM.
